As a reminder, the inhibition is the relative decrease from the control value, in per cent. As usually defined, the melting point is the temperature of the solid-liquid transition.

Among the data in US8642770B2, “Indole derivative” (Takeda Pharmaceutical Company Limited, priority 2010, dated 2014) are inhibition, inhibition in vivo and melting point values, retold here.

Series [1] concerns the target T1, human MCHR1 (Homo sapiens, UniProt Q99705).
T1 construct: expressed in transfected cells; host or cells: CHO cell clone 57 (membrane fraction)
As to the kind of experiment: Human MCH receptor 1 (MCHR1) competitive binding assay, [125I]-MCH(4-19), CHO cell membrane fraction. The settings on record: test compound 0.1 μM, human MCHR1-expressing CHO cell membrane, 25° C., 1 hr, read-out: Binding inhibition rate (0.1 μM). As to the method: Determination of Human MCH Receptor 1 (MCHR1) Competitive Inhibitory Activity of Test Compound Using Binding Assay
Using human MCHR1(=SLC-1 receptor)-expressing CHO cell clone 57 and rat MCHR1-expressing CHO cell clone 44 described in WO01/82925, MCHR1-expressing CHO cellular membrane fractions were prepared by the following method. In phosphate buffered saline (pH 7.4) supplemented with 5 mM EDTA (ethylenediaminetetraacetic acid) were respectively suspended human and rat MCHR1-expressing CHO cells (1×10^8 cells) and centrifuged. Homogenate buffer (10 mL, 10 mM NaHCO3, 5 mM EDTA, pH 7.5, 0.5 mM PMSF (phenylmethylsulfonyl fluoride), 20 mg/L leupeptin, 4 mg/L E-64, 1 mg/L pepstatin A) was added to the pellets of the cells and, using Polytron Homogenizer, the mixture was homogenated. The supernatant obtained after centrifugation at 400×g for 10 min was further centrifuged at 100,000×g for 1 hr to give precipitate of the membrane fraction. The precipitate were suspended in 2 mL of assay buffer [20 mM Tris-HCl (pH 7.5), 5 mM EDTA, 0.5 mM PMSF, 20 mg/L leupeptin, 4 mg/L E-64, 1 mg/L pepstatin A]. The membrane fractions were suspended in assay buffer to a protein concentration of 2 mg/mL, and after dispensing, preserved at −80° C. and used upon thawing each time when in use.
The MCHR1 ligand binding inhibitory activity of the test compound was determined as follows. An MCHR1-expressing CHO cellular membrane fraction (175 μL) diluted with an assay buffer was dispensed to a 96 well polypropylene plate (3363, Corning). DMSO solution (2 μL), 100 μm cold MCH(1-19) diluted with DMSO solution (2 μL), or a test compound solution diluted with DMSO solution to various concentrations (2 μL) was added, and lastly, [^125I]-MCH(4-19) diluted with assay buffer (25 μL) was added to each well. The reaction mixture was reacted at 25° C. for 1 hr with stirring, and the reaction mixture was filtered by suction using a glass filter plate (GF/C, PerkinElmer). The filter was washed 3 times with a wash solution (300 μL, 50 mM Tris-HCl buffer, pH 7.5). The glass filter plate was dried, a liquid scintillator was added at 25 μL/well, and the residual radioactivity was measured by TopCount (PerkinElmer). The binding inhibition rate of the test compound was calculated by the following formula. Binding inhibition (%)=(radioactivity upon addition of test compound and hot MCH−radioactivity upon addition of cold MCH and hot MCH solution)/(radioactivity upon addition of DMSO solution and hot MCH−radioactivity upon addition of cold MCH and hot MCH solution)×100

Series [2] deals with T1, human MCHR1. Briefly: MCH receptor 1 antagonistic activity, Ca2+ mobilization assay in human MCHR1-expressing CHO cells. The series is classed as cell-based. The settings on record: test compound 0.1 μM; human MCHR1-expressing CHO cell; ligand MCH (4-19) peptide 20 nM; Fluo4 fluorescence; read-out: Inhibition rate (%). Here is the method: Measurement of MCH Receptor 1 Antagonistic Activity of Test Compound Using Ca^2+ Mobilization Assay
CHO cell (CHO dhfr^−, clone #4) expressing a recombinant human MCHR1 gene for Ca^2+ mobilization assay was prepared by us. The cell was cultured in MEMα medium [445 mL of MEMα medium without nucleic acid and added with 5 mL of Penicillin-Streptomycin (Invitrogen) and 50 mL of dialyzed fetal bovine serum]. An integrated dispensing function fluorometer (CellLux, PerkinElmer) was used for Ca^2+ mobilization assay. CHO cells were sown in a 96 well plate (type 3904, Corning) with a black plate wall and clear well bottom at a density of 20000 cells/well, and cultured in an incubator for about 24 hr at 5% CO2, 37° C. The medium was removed, and the cells were washed with phosphate buffered saline (PBS). A Ca^2+ indicator dye reagent (DOJINDO LABORATORIES, Ca screening no-wash kit Fluo4) was added at 90 μL/well, and the dye was allowed to penetrate into the cell for 30 min in an incubator at 5% CO2, 37° C. The plate was set on a plate reader, a test compound solution diluted with an assay buffer [10 mM HEPES (pH 7.4), 1× assay buffer containing 0.1% BSA (DOJINDO LABORATORIES, attached to Ca screening no-wash kit Fluo4)] or DMSO solution was added at 10 μL/well, and ligand MCH (4-19) peptide (final concentration 20 nM) diluted with assay buffer or DMSO was added at 50 μL/well, during which changes in intracellular fluorescence were measured at 2 second intervals. The antagonistic activity of the test compound was calculated and shown as an inhibition rate (%) wherein the intracellular fluorescence activity resulting from the stimulation by the addition of ligand MCH (4-19) peptide was 100% and that of the well added with DMSO solution alone was 0%.
(A change in cytosolic calcium serves as a functional read-out for many receptors and channels.)

The subject of series [3] is Dietary obese male F344/Jcl rats. Briefly: Anorectic effect (food intake) in dietary obese male F344/Jcl rats. The series is classed as in vivo. The settings on record: Rattus norvegicus, 48 h; oral, 0.5% methylcellulose suspension (5 mg/mL) at 2 mL/kg, on start day and evening of next day; food intake from initial administration to 2 days later; vs control group; read-out: Food intake inhibition rate (%). An excerpt:
Evaluation of Anorectic Effect Using Dietary Obese Male F344/Jcl Rats
Dietary obese male F344/Jcl rats (42-57-week-old) reared on a high-fat diet (Research Diets: D12451) from 5 weeks of age were used. From before the start of experiment, the rats were independently raised, a powder high-fat diet (Research Diets: D12451M) was given, tap water was orally administered for acclimation, and thereby the rats were habituated. The food intake from the evening of the day before the start of experiment to the next morning was measured, and the rats were grouped based on the food intake and the body weight of the previous day as indices. On the day of the start of experiment and in the evening of the next day, 0.5% methylcellulose solution was orally administered to the control group, and 0.5% methylcellulose suspension (5 mg/mL) of the test compound was orally administered to the compound administration group at 2 mL/kg (6 per group for both control group and compound administration group). The food intake from the initial administration to 2 days later was measured. The food intake inhibition rate of each compound administration group to the control group was calculated.

T1 sequence (Q99705 whole entry): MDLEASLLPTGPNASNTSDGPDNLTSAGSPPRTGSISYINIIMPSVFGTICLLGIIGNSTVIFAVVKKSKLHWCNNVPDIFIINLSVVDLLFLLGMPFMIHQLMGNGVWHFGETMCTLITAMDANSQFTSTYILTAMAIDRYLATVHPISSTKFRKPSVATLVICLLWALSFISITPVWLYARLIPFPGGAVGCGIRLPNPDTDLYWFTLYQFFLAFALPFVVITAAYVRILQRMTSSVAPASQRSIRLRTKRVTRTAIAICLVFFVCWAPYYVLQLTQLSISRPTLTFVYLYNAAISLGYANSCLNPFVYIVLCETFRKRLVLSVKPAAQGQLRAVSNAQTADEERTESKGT

The compound `Cc1c(NC(=O)c2ccc(OCC3CC3)cc2)ccc2c1cc(CNCC(C)(C)O)n2C` [Example 50, 4-(cyclopropylmethoxy)-N-(2-{[(2-hydroxy-2-methylpropyl)amino]methyl}-1,4-dimethyl-1H-indol-5-yl)benzamide] registered a melting point of 175 to 176 °C. Besides, the inhibition at 0.1 µM in series [1] came out at 97%. Also, the inhibition at 0.1 µM in series [2] turned out to be 97%. Besides, in series [3], the inhibition in vivo at 10 mg/kg turned out to be 26.5%.

As to `Cc1c(NC(=O)c2ccc(OC[C@@H]3CCCO3)cc2)ccc2c1cc(CNCC1CCOCC1)n2C` [Example 55, N-(1,4-dimethyl-2-{[(tetrahydro-2H-pyran-4-ylmethyl)amino]methyl}-1H-indol-5-yl)-4-[(2S)-tetrahydrofuran-2-ylmethoxy]benzamide], the melting point was 166 to 167 °C. Further, in series [1], the inhibition at 0.1 µM came to 98%. Further, in series [2], the inhibition at 0.1 µM came to 99%. For the same compound, the inhibition in vivo at 10 mg/kg in series [3] is 22.7%.

As to `Cc1c(NC(=O)c2ccc(OC[C@@H]3CCCO3)cc2F)ccc2c1cc(CNCC(C)(C)O)n2C` [Example 60, 2-fluoro-N-(2-{[(2-hydroxy-2-methylpropyl)amino]methyl}-1,4-dimethyl-1H-indol-5-yl)-4-[(2S)-tetrahydrofuran-2-ylmethoxy]benzamide], the melting point was 118 °C. Also, the inhibition at 0.1 µM in series [1] amounted to 98%. Further, the inhibition at 0.1 µM in series [2] was 97%. The inhibition in vivo at 10 mg/kg in series [3] is 19.9%.

For `Cc1c(NC(=O)c2ccc(OC[C@@H]3CCCO3)cc2)ccc2cc(CN[C@H]3CC[C@](C)(O)CC3)n(C)c12` [Example 84, N-(2-{[(trans-4-hydroxy-4-methylcyclohexyl)amino]methyl}-1,7-dimethyl-1H-indol-6-yl)-4-[(2S)-tetrahydrofuran-2-ylmethoxy]benzamide], the melting point was in the range of 171 to 172 °C. Besides, in series [1], the inhibition at 0.1 µM worked out at 101%. Also, the inhibition at 0.1 µM in series [2] was determined as 97%. Further, the inhibition in vivo at 10 mg/kg in series [3] came to 12.1%.

In turn, `Cc1c(NC(=O)c2ccc(OC[C@@H]3CCCO3)cc2F)ccc2cc(CN[C@H]3CC[C@](C)(O)CC3)n(C)c12` [Example 88, 2-fluoro-N-(2-{[(trans-4-hydroxy-4-methylcyclohexyl)amino]methyl}-1,7-dimethyl-1H-indol-6-yl)-4-[(2S)-tetrahydrofuran-2-ylmethoxy]benzamide] gave a melting point of 131 to 132 °C. Besides, the inhibition at 0.1 µM in series [1] came out at 95%. Besides, in series [2], the inhibition at 0.1 µM amounted to 98%. Also, the inhibition in vivo at 10 mg/kg in series [3] amounted to 17.5%.
